Experimental data reported in patent publication US11696913B2, “Prolonged ectoparasite-controlling agent for animal” (MITSUI CHEMICALS AGRO, INC., priority 2017, dated 2023).
Read-outs that look alike come from different tables or passages of the source.

Tests used:
[1] = system: Amblyomma americanum; assay: In vitro contact test with hard ticks (Amblyomma americanum nymphs); settings: read-out: acaricidal activity; for pest or weed control at 0.2 µg/cm2, 0.2 µg/cm2: dose 0.2 μg/cm^2, 48 h; for pest or weed control at 1 µg/cm2, 1 µg/cm2: dose 1 μg/cm^2, 48 h
How it was run: (§1)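 Adult R. sanguineus, I. ricinus, D. variabilis or A. americanum nymphs exposed in glass vials coated with compound from acetone (900 ppm gives 5 μg/cm^2). Held 48 h at room temperature (R. sanguineus) or 21° C., 85% rel. hum.; then heated at 45-50° C. ≤5 min, motionless or uncoordinated ticks scored dead/moribund.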

[2] = system: Ctenocephalides felis; assay: Ctenocephalides felis in-vitro feeding test with fleas (CTECFE oral); settings: 48 hours, read-out: insecticidal feeding activity; for pest or weed control at 0.8 ppm: dose 0.8 ppm in citrated cattle blood; for pest or weed control at 4 ppm: dose 4 ppm in citrated cattle blood
How it was run: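 About 20 unfed adult cat fleas fed through parafilm on citrated cattle blood containing test substance (DMSO solution diluted in blood), held at about 37° C. Kill rate scored after 48 hours, 100% meaning all fleas dead.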

[3] = system: Ctenocephalides felis; assay: Systemic treatment in-vivo test with cat flea on rats; settings: Ctenocephalides felis, ip, intraperitoneal injection
How it was run: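 Rats dosed intraperitoneally per body weight in glycerol formal (up to 25% NMP for poorly soluble compounds). 30 D. variabilis nymphs released on treatment day and weekly, 30 C. felis fleas 24 h later; live attached engorged ticks counted at 48 h (±4 h), live fleas at 24 h, efficacy versus placebo group.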

[4] = system: Rhipicephalus (Boophilus) microplus; assay: In vitro injection test with Rhipicephalus (Boophilus) microplus (BOOPMI Inj); settings: 168 h, laid fertile eggs after 7 days, read-out: acaricidal activity; for pest or weed control at 32 ng: dose 0.032 μg/animal injected; for pest or weed control at 0.00016 mg: dose 0.16 μg/animal injected; for pest or weed control at 0.0008 mg: dose 0.8 μg/animal injected
How it was run: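 Test substance in DMSO; 1 μl injected into abdomen of each of 5 engorged adult female ticks, then held at 28° C., 85% rel. hum. Activity scored after 7 days from laying of fertile eggs: 100% = no eggs or all infertile, 0% = all eggs fertile.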

[5] = system: Rhipicephalus sanguineus; assay: In vitro contact test with adult hard ticks (Rhipicephalus sanguineus); settings: read-out: acaricidal activity; for pest or weed control at 1 µg/cm2, 1 µg/cm2: dose 1 μg/cm^2, 48 h
How it was run: as §1

[6] = system: Dermacentor variabilis; assay: In vitro contact test with adult hard ticks (Dermacentor variabilis); settings: read-out: acaricidal activity
How it was run: as §1

[7] = system: Dermacentor variabilis; assay: Systemic treatment in-vivo test with American dog tick nymph on rats; settings: Dermacentor variabilis, ip, intraperitoneal injection, 10 mg/kg
Method: Systemic Treatment In-Vivo Test with American Dog Tick Nymph and Cat Flea on Rats
Type of study and overall study design: The method is a randomized non-blinded efficacy study in accordance with European animal welfare requirements. Rats (Rattus norvegicus) were randomized based on pre-treatment flea counts. The efficacy of treatment was determined by comparison of the flea and tick counts of different treatment groups versus the placebo-treated control group. The experimental unit was the individual study animal. Method and route of administration: The compound was applied in a suitable solvent and carrier (more specifically, added to glycerol formal; in case of poorly soluble compounds, a solvent mixture with up to 25% by volume of N-methyl pyrrolidone may be used.) considering the individual body weight as an intraperitoneal injection.
Experimental infestation: On the day of treatment and weekly thereafter, 30 ticks (D. variabilis nymphs) were released onto the back of each rat, and 30 fleas (C. felis) were released onto the back of each rat 24 h later.
Tick and Flea counting: Rats were thoroughly examined and ticks and fleas were manually removed 48 h (±4 h) after tick infestation and 24 h after flea infestation. Live fleas and live attached engorged ticks were counted. In non-evident cases, engorgement status was evaluated by squeezing the tick on a filter paper to find traces of blood as sign for engorgement.

[8] = SD 2, read-out: Geometric mean percent reduction in live flea (Ctenocephalides felis) counts compared to untreated control rats
[9] = SD 9, read-out: Geometric mean percent reduction in live flea (Ctenocephalides felis) counts compared to untreated control rats
[10] = SD 16, read-out: Geometric mean percent reduction in live flea (Ctenocephalides felis) counts compared to untreated control rats
[11] = SD 23, read-out: Geometric mean percent reduction in live flea (Ctenocephalides felis) counts compared to untreated control rats

Compound: CN(C(=O)c1ccc(F)cc1)c1cccc(C(=O)Nc2c(I)cc(C(F)(C(F)(F)F)C(F)(F)F)cc2C(F)(F)F)c1F [Compound 24]
- pest or weed control at 0.2 µg/cm2, 0.2 µg/cm2 [1]: 90%
- pest or weed control at 1 µg/cm2, 1 µg/cm2 [1]: 90%
- pest or weed control at 0.8 ppm [2]: 95%
- pest or weed control at 4 ppm [2]: 95%
- inhibition in vivo at 5 mg/kg [3, 8]: 100%
- inhibition in vivo at 5 mg/kg [3, 9]: 99%
- inhibition in vivo at 5 mg/kg [3, 10]: 99%
- inhibition in vivo at 5 mg/kg [3, 11]: 36%
- pest or weed control at 32 ng [4]: 100%
- pest or weed control at 0.00016 mg [4]: 100%
- pest or weed control at 0.0008 mg [4]: 100%
- pest or weed control at 1 µg/cm2, 1 µg/cm2 [5]: 90%

Compound: CN(C(=O)c1ccc(F)cc1)c1cccc(C(=O)Nc2c(I)cc(C(F)(C(F)(F)F)C(F)(F)C(F)(F)F)cc2C(F)(F)F)c1F (stereo not drawn) [Compound 37]
- pest or weed control at 0.2 µg/cm2, 0.2 µg/cm2 [1]: 90%
- pest or weed control at 1 µg/cm2, 1 µg/cm2 [1]: 90%
- pest or weed control at 0.2 µg/cm2, 0.2 µg/cm2 ([6]; dose 0.2 μg/cm^2, 48 h): 90%
- pest or weed control at 1 µg/cm2, 1 µg/cm2 ([6]; dose 1 μg/cm^2, 48 h): 90%
- inhibition in vivo at 10 mg/kg ([7]; SD 2, read-out: Geometric mean percent reduction in live tick (Dermacentor variabilis) counts compared to untreated control rats): 100%
- inhibition in vivo at 10 mg/kg ([7]; SD 9, read-out: Geometric mean percent reduction in live tick (Dermacentor variabilis) counts compared to untreated control rats): 100%
- inhibition in vivo at 10 mg/kg ([7]; SD 16, read-out: Geometric mean percent reduction in live tick (Dermacentor variabilis) counts compared to untreated control rats): 99%
- inhibition in vivo at 10 mg/kg ([7]; SD 23, read-out: Geometric mean percent reduction in live tick (Dermacentor variabilis) counts compared to untreated control rats): 99%
- inhibition in vivo at 10 mg/kg ([7]; SD 30, read-out: Geometric mean percent reduction in live tick (Dermacentor variabilis) counts compared to untreated control rats): 80%
- pest or weed control at 0.032 ppm ([2]; dose 0.032 ppm in citrated cattle blood): 95%
- pest or weed control at 0.16 ppm ([2]; dose 0.16 ppm in citrated cattle blood): 95%
- pest or weed control at 0.8 ppm [2]: 95%
- pest or weed control at 4 ppm [2]: 95%
- inhibition in vivo at 10 mg/kg [3, 8]: 100%
- inhibition in vivo at 10 mg/kg [3, 9]: 97%
- inhibition in vivo at 10 mg/kg [3, 10]: 97%
- inhibition in vivo at 10 mg/kg [3, 11]: 100%
- inhibition in vivo at 10 mg/kg ([3]; SD 30, read-out: Geometric mean percent reduction in live flea (Ctenocephalides felis) counts compared to untreated control rats): 80%
- pest or weed control at 6.4 ng ([4]; dose 0.0064 μg/animal injected): 100%
- pest or weed control at 32 ng [4]: 100%
- pest or weed control at 0.00016 mg [4]: 100%
- pest or weed control at 0.0008 mg [4]: 100%
- pest or weed control at 0.2 µg/cm2, 0.2 µg/cm2 ([5]; dose 0.2 μg/cm^2, 48 h): 90%
- pest or weed control at 1 µg/cm2, 1 µg/cm2 [5]: 90%
